Converted amounts (≈) assume the structure as drawn. Like-named read-outs stand apart in the source and are kept apart here.
Tests used:
S. aureus ATCC 29213 [1] = assay: MBC assay; type: cell-based, Staphylococcus aureus
Experimental: (§1) The staphylococci and enterococci were cultured and maintained on Mueller-Hinton Medium (agar and broth) at pH 7.2; they were incubated aerobically at 37° C. for 24 hours.
(§2) This assay, normally carried out after an MIC assay, determines the minimum concentration of a compound that is lethal to the micro-organism being tested.
(§3) These samples were then individually sub-cultured on non-selective agar medium, under the incubation conditions described above. Following incubation they were examined visually for bacterial growth.
(§4) The following experiments all used S. aureus ATCC 29213 as the test organism. MIC, MBC and DDA assays, as described above, were carried out using a range of different benzoquinones and hydroquinones. Supplemented DDA assays, in the presence of salt, lipid and blood, were also conducted.

P. acnes NCTC 737 [2] = assay: MIC assay; type: cell-based, Propionibacterium acnes
Experimental: 2. Propionibacterium spp.—the principal propionibacterial strain used in these studies was Propionibacterium acnes NCTC 737.
(§5) The Propionibacterium spp organisms were cultured and maintained on Wilkins-Chalgren Anaerobe Medium (agar and broth) at pH 6.0; cultures were incubated anaerobically at 37° C. for 72 hours.
(§6) This is a standard international method for quantitatively assessing the antimicrobial activity of a compound in a liquid medium. The method used a 96-well microtitre plate, capable of holding about 200 μl of liquid per well. […] The culture media were as described above for the relevant test organisms.
(§7) The wells were inoculated with a liquid suspension of freshly grown micro-organism and incubated under the conditions described above. After incubation, the microtitre plate was examined visually (with the aid of a light box) for cloudiness in each well, which would indicate microbial growth. The MIC value was recorded as the lowest concentration of test compound required to inhibit microbial growth, i.e., the lowest concentration for which the liquid in the well remained clear.
(§8) The assays were conducted in duplicate and included both negative (culture medium only) and positive (culture medium, diluting solvent and inoculum) controls.
(§9) MIC, MBC and DDA assays, as described above, were carried out using a range of different benzoquinones and hydroquinones. Supplemented DDA assays, in the presence of salt and lipid, were also conducted.

S. aureus ATCC 29213 [3] = assay: Disc diffusion assay (DDA); type: cell-based, Staphylococcus aureus; settings: for zone of inhibition at 200 µg/disc: Staphylococcus aureus
Experimental: as §1
(§10) A sterile paper disc was impregnated with a sample of the test compound and a minimum of 30 minutes allowed for the solvents to evaporate as far as possible. The disc was then placed on an agar plate onto which the test micro-organism had been inoculated. The plate was then incubated under the conditions described above, following which it was examined visually for signs of bacterial growth. […] The diameter of this zone of “inhibition” was measured using a ProtoCOL™ automated zone sizer (Synbiosis, Cambridge, UK).
(§11) The area of the zone of inhibition was calculated from the measured zone diameter (D) using the formula π(D/2)^2.
(§12) For most DDA assays, 200 μg of each compound was loaded onto each disc.

P. acnes NCTC 737 [4] = assay: MBC assay; type: cell-based, Propionibacterium acnes
Experimental: as §5, §2, §3, §9

S. aureus ATCC 29213 [5] = assay: Supplemented disc diffusion assay; type: cell-based, Staphylococcus aureus; settings: for zone of inhibition at 200 µg/disc: Staphylococcus aureus, ATCC29213, 24 h
Experimental: as §1, §10
(§13) Performance under these conditions can provide a more reliable indication of activity on topical application. For assays conducted using S. aureus strains, the supplements were defibrinated horse blood (5% v/v), lipid (Tween™ 80 at 1% v/v) and sodium chloride (100 mM). For those using Propionibacterium spp. strains, the supplements were lipid (Tween™ 80 at 1% v/v) and sodium chloride (100 mM).
as §4, §12

P. acnes NCTC 737 [6] = assay: Supplemented disc diffusion assay; type: cell-based, Propionibacterium acnes; settings: for zone of inhibition at 200 µg/disc: Cutibacterium acnes, NCTC737, 72 h
Experimental: as §5, §10, §13, §9, §12

S. aureus ATCC 29213 [7] = assay: MIC assay; type: cell-based, Staphylococcus aureus
Experimental: 1. Staphylococcus aureus—the principal staphylococcal test micro-organism used in these studies was Staphylococcus aureus ATCC 29213. This strain is the one recommended for QC/QA purposes in Minimum Inhibitory Concentration (MIC) assays by the US Clinical and Laboratory Standards Institute (formerly the NCCLS), an FDA-recognised body.
as §1, §6, §7, §8, §4

P. acnes NCTC 737 [8] = assay: Disc diffusion assay (DDA); type: cell-based, Propionibacterium acnes; settings: for zone of inhibition at 200 µg/disc: Cutibacterium acnes
Experimental: as §5, §10, §11, §12

[9] = Staphylococcus aureus, ATCC29213, read-out: MBC
[10] = Cutibacterium acnes, NCTC737, P. acnes NCTC 737, Wilkins-Chalgren broth pH 6.0, anaerobic, 37° C., 72 hours, read-out: MIC
[11] = ATCC29213, S. aureus ATCC 29213, unsupplemented agar, 200 μg per disc (thymoquinone 50 μg, 2,6-dimethoxy-p-benzoquinone 100 μg), read-out: DDA (diameter of zone of inhibition)
[12] = Cutibacterium acnes, NCTC737, P. acnes NCTC 737, read-out: MBC
[13] = S. aureus ATCC 29213, Tween 80 at 1% v/v, 200 μg per disc (thymoquinone 50 μg, 2,6-dimethoxy-p-benzoquinone 100 μg), read-out: DDA + lipid
[14] = S. aureus ATCC 29213, defibrinated horse blood 5% v/v, 200 μg per disc (thymoquinone 50 μg, 2,6-dimethoxy-p-benzoquinone 100 μg), read-out: DDA + blood
[15] = S. aureus ATCC 29213, sodium chloride 100 mM, 200 μg per disc (thymoquinone 50 μg, 2,6-dimethoxy-p-benzoquinone 100 μg), read-out: DDA + salt
[16] = P. acnes NCTC 737, Tween 80 at 1% v/v, 200 μg per disc (2,6-dimethoxy-p-benzoquinone 100 μg), read-out: DDA + lipid
[17] = P. acnes NCTC 737, sodium chloride 100 mM, 200 μg per disc (2,6-dimethoxy-p-benzoquinone 100 μg), read-out: DDA + salt
[18] = Staphylococcus aureus, ATCC29213, S. aureus ATCC 29213, Mueller-Hinton broth pH 7.2, aerobic, 37° C., 24 hours, read-out: MIC
[19] = NCTC737, P. acnes NCTC 737, unsupplemented agar, 200 μg per disc (2,6-dimethoxy-p-benzoquinone 100 μg), read-out: DDA (diameter of zone of inhibition)

MIC/MBC ratio (S. aureus ATCC 29213 [1]) | MIC (P. acnes NCTC 737 [2]; [10]) [µg/mL] | MIC/MBC ratio (P. acnes NCTC 737 [4]; P. acnes NCTC 737) | MIC (S. aureus ATCC 29213 [7]; [18]) [µg/mL] | SMILES | MBC (S. aureus ATCC 29213 [1]; [9]) [µg/mL] | zone of inhibition at 200 µg/disc (S. aureus ATCC 29213 [3]; [11]) [mm] | MBC (P. acnes NCTC 737 [4]; [12]) [µg/mL] | zone of inhibition at 200 µg/disc (S. aureus ATCC 29213 [5]; [13]) [mm] | zone of inhibition at 200 µg/disc (S. aureus ATCC 29213 [5]; [14]) [mm] | zone of inhibition at 200 µg/disc (S. aureus ATCC 29213 [5]; [15]) [mm] | zone of inhibition at 200 µg/disc (P. acnes NCTC 737 [6]; [16]) [mm] | zone of inhibition at 200 µg/disc (P. acnes NCTC 737 [6]; [17]) [mm] | zone of inhibition at 200 µg/disc (P. acnes NCTC 737 [8]; [19]) [mm] | other results
0.5 | 7.8 (≈ 35.1 µM) | 0.5 | 7.8 (≈ 35.1 µM) | CC(C)(C)c1cc(C(C)(C)C)c(O)cc1O [4,6-di-t-butylresorcinol] | 15.6 (≈ 70.2 µM) | 8.09 | 15.6 (≈ 70.2 µM) | 0 | 0 | 8.4 | 0 | 37.8 | 36.6 | –
0.5 | 31.2 (≈ 188 µM) | 1 | 7.8 (≈ 46.9 µM) | Cc1cc(O)c(C(C)C)cc1O [thymohydroquinone] | 15.6 (≈ 93.9 µM) | 57.6 | 31.2 (≈ 188 µM) | 41.7 | 10.3 | 57.6 | 0 | 9.61 | 9.82 | –
1 | – | 0.25 | – | Oc1ccc(O)c(F)c1F [2,3-difluoro-p-hydroquinone] | – | – | – | – | – | – | – | – | – | MBC (S. aureus ATCC 29213 [1]): 15.6 µg/mL (≈ 107 µM); MIC (P. acnes NCTC 737 [2]; P. acnes NCTC 737, Wilkins-Chalgren broth pH 6.0, anaerobic, 37° C., 72 hours): 7.8 µg/mL (≈ 53.4 µM); DDA (diameter of zone of inhibition) (S. aureus ATCC 29213 [3]; S. aureus ATCC 29213, unsupplemented agar, 200 μg per disc (thymoquinone 50 μg, 2,6-dimethoxy-p-benzoquinone 100 μg)): 15.77 mm; MBC (P. acnes NCTC 737 [4]; P. acnes NCTC 737): 31.25 µg/mL (≈ 214 µM); DDA + lipid (S. aureus ATCC 29213 [5]; S. aureus ATCC 29213, Tween 80 at 1% v/v, 200 μg per disc (thymoquinone 50 μg, 2,6-dimethoxy-p-benzoquinone 100 μg)): 14.63 mm; DDA + blood (S. aureus ATCC 29213 [5]; S. aureus ATCC 29213, defibrinated horse blood 5% v/v, 200 μg per disc (thymoquinone 50 μg, 2,6-dimethoxy-p-benzoquinone 100 μg)): 10.27 mm; DDA + salt (S. aureus ATCC 29213 [5]; S. aureus ATCC 29213, sodium chloride 100 mM, 200 μg per disc (thymoquinone 50 μg, 2,6-dimethoxy-p-benzoquinone 100 μg)): 15.56 mm; DDA + lipid (P. acnes NCTC 737 [6]; P. acnes NCTC 737, Tween 80 at 1% v/v, 200 μg per disc (2,6-dimethoxy-p-benzoquinone 100 μg)): 0.0 mm; DDA + salt (P. acnes NCTC 737 [6]; P. acnes NCTC 737, sodium chloride 100 mM, 200 μg per disc (2,6-dimethoxy-p-benzoquinone 100 μg)): 0.0 mm; MIC (S. aureus ATCC 29213 [7]; S. aureus ATCC 29213, Mueller-Hinton broth pH 7.2, aerobic, 37° C., 24 hours): 15.6 µg/mL (≈ 107 µM); DDA (diameter of zone of inhibition) (P. acnes NCTC 737 [8]; P. acnes NCTC 737, unsupplemented agar, 200 μg per disc (2,6-dimethoxy-p-benzoquinone 100 μg)): 0.0 mm

SMILES | MIC/MBC ratio (S. aureus ATCC 29213 [1]) | MIC (P. acnes NCTC 737 [2]; [10]) [µg/mL] | MIC/MBC ratio (P. acnes NCTC 737 [4]; P. acnes NCTC 737) | MIC (S. aureus ATCC 29213 [7]; [18]) [µg/mL] | MBC (S. aureus ATCC 29213 [1]; [9]) [µg/mL] | zone of inhibition at 200 µg/disc (S. aureus ATCC 29213 [3]; [11]) [mm] | MBC (P. acnes NCTC 737 [4]; [12]) [µg/mL] | zone of inhibition at 200 µg/disc (S. aureus ATCC 29213 [5]; [13]) [mm] | zone of inhibition at 200 µg/disc (S. aureus ATCC 29213 [5]; [14]) [mm] | zone of inhibition at 200 µg/disc (S. aureus ATCC 29213 [5]; [15]) [mm] | zone of inhibition at 200 µg/disc (P. acnes NCTC 737 [6]; [16]) [mm] | zone of inhibition at 200 µg/disc (P. acnes NCTC 737 [6]; [17]) [mm] | zone of inhibition at 200 µg/disc (P. acnes NCTC 737 [8]; [19]) [mm] | other results
CC(C)(C)C1=CC(=O)C=CC1=O [2-t-butyl-p-benzoquinone] | 1 | 7.8 (≈ 47.5 µM) | 0.5 | 15.6 (≈ 95 µM) | 15.6 (≈ 95 µM) | 58.5 | 15.6 (≈ 95 µM) | > 90 | 10.9 | 54.7 | > 90 | > 90 | 60.8 | effect of lipid on antimicrobial activity (P. acnes NCTC 737 [6]; P. acnes NCTC 737, activity increases in the presence of lipid): potentiated
Cc1cc(O)c(C)c(O)c1 [2,5-dimethylresorcinol] | <0.06 | – | 0.125 | – | – | – | – | – | – | – | – | – | – | MBC (S. aureus ATCC 29213 [1]; Staphylococcus aureus, ATCC29213): > 250 µg/mL; MIC (P. acnes NCTC 737 [2]; Cutibacterium acnes, NCTC737, 72 h, pH 6): 3.9 µg/mL (≈ 28.2 µM); zone of inhibition at 200 µg/disc (S. aureus ATCC 29213 [3]; ATCC29213, read-out: DDA (diameter of zone of inhibition)): 16.7 mm; MBC (P. acnes NCTC 737 [4]; Cutibacterium acnes, NCTC737): 31.2 µg/mL (≈ 226 µM); zone of inhibition at 200 µg/disc (S. aureus ATCC 29213 [5]; read-out: DDA + blood): 0 mm; zone of inhibition at 200 µg/disc (S. aureus ATCC 29213 [5]; read-out: DDA + lipid): 13.8 mm; zone of inhibition at 200 µg/disc (S. aureus ATCC 29213 [5]; read-out: DDA + salt): 16.9 mm; zone of inhibition at 200 µg/disc (P. acnes NCTC 737 [6]; read-out: DDA + lipid): 0 mm; zone of inhibition at 200 µg/disc (P. acnes NCTC 737 [6]; read-out: DDA + salt): 0 mm; MIC (S. aureus ATCC 29213 [7]; Staphylococcus aureus, ATCC29213, 24 h, pH 7.2): 15.6 µg/mL (≈ 113 µM); zone of inhibition at 200 µg/disc (P. acnes NCTC 737 [8]; NCTC737, read-out: DDA (diameter of zone of inhibition)): 0 mm

From US20090030086A1, “ANTIMICROBIAL AGENTS” (priority 2005, published 2009)
